# Source: US7253286B2, “Nitrogen-containing aromatic derivatives” (Eisai Co., Ltd, priority 2000, dated 2007)
# Legend:
# VEGFR2 = target: T1, VEGFR2 (Homo sapiens, UniProt P35968); assay: Inhibition against VEGFR2 kinase (receptor tyrosine kinase activity, HTRF method); type: biochemical; settings: His6-VEGFR2 cytoplasmic domain, biotin-poly(GT) substrate, ATP, 30° C. 10 minutes, read-out: IC50 (concentration required for 50% inhibition of VEGFR2 kinase activity)
# T1 construct: coding for the cytoplasmic domain, beginning with lysine 791 and including the termination codon; made in house; host or cells: Sf9 insect cells (baculovirus, pFastBacHis)
# T1 sequence (P35968 786-1356 limits assumed): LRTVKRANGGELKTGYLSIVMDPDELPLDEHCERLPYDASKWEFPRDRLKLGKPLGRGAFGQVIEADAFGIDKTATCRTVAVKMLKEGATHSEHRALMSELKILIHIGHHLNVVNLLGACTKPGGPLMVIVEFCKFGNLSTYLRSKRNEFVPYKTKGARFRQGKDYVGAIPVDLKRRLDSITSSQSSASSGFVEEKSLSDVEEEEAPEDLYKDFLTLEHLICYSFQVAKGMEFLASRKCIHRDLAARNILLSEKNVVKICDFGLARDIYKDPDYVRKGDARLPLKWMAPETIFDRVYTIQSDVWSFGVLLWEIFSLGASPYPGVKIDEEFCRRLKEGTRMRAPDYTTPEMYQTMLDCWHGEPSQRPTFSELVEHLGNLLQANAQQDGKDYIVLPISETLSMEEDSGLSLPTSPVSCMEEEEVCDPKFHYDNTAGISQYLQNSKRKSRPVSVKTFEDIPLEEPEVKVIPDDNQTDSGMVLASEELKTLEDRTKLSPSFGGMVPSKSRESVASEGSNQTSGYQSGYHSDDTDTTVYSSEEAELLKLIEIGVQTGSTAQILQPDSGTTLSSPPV
# Outline: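 Construct: His6-tagged VEGFR2 cytoplasmic domain (from Lys791), expressed in Sf9 cells. Kinase step: biotin-poly(Glu4:Tyr1) substrate, ATP added as 10 μl of 4 μM, Hepes pH 7.4 with Mg2+/Mn2+, 30 °C for 10 min, EDTA stop. Phosphotyrosine product measured by HTRF.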
# [1] = test system: Human Umbilical Vein Endothelial Cells (HUVECs); assay: Inhibition against invasive tube formation by vascular endothelial cells in response to stimulation by angiogenic factor mixture; type: cell-based; parameters: key: the number of tubes formed in the absence of the test substance was designated as +++; scored on the 5-level scale of +++, ++, +, +/−, −; scored on the 5-level scale of +++, ++, +, +/−, −; scored on the 5-level scale of +++, ++, +, +/−, −; − was assigned if absolutely no tubes formed; settings: HUVEC on fibrin gel, EGF/FGF2/VEGF/HGF/TNF-α mixture, 6th day, MTT staining; for number of tubes formed in the fibrin gel (score) at 0.01 μM: test substance 0.01 μM; for number of tubes formed in the fibrin gel (score) at 0.1 μM: test substance 0.1 μM; for number of tubes formed in the fibrin gel (score) at 1.0 μM: test substance 1.0 μM
# Outline: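 HUVECs seeded on fibrin gel in Transwells were cultured with compound plus EGF, FGF2, VEGF, HGF and TNF-α in serum-free medium at 37 °C; medium with factors and compound was renewed on days 2 and 4. On day 6, MTT-stained tubes were counted microscopically and scored on a five-level scale from +++ (no-compound control) to −.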
Structure (SMILES),IC50 (VEGFR2) [nM],number of tubes formed in the fibrin gel (score) at 0.01 μM [1],number of tubes formed in the fibrin gel (score) at 0.1 μM [1],number of tubes formed in the fibrin gel (score) at 1.0 μM [1]
"COCCOc1cc2nccc(Oc3ccc(NC(=O)Nc4ccc(F)cc4)c(F)c3)c2cc1C#N [Example 100, N-(4-(6-Cyano-7-(2-methoxyethoxy)-4-quinolyl)oxy-2-fluorophenyl)-N′-(4-fluorophenyl)urea]",9.6,++,+/−,+/−
"NC(=O)c1cc2c(Oc3ccc(NC(=O)NC4CC4)c(F)c3)ccnc2cc1OCCCN1CCOCC1 [Example 374, 4-(4-(Cyclopropylaminocarbonyl)amino-3-fluorophenoxy)-7-(3-(4-morpholino)propoxy)-6-quinolinecarboxamide]",8.4,+/−,−,−
"N#CCCCOc1cc2nccc(Oc3ccc(NC(=O)Nc4ccc(F)cc4F)c(F)c3)c2cc1C#N [Example 55, N-(4-(6-Cyano-7-(3-cyanopropoxy)-4-quinolyl)oxy-2-fluorophenyl)-N′-(2,4-difluorophenyl)urea]",29,+++,+/−,+/−

# These reach a lower IC50 (VEGFR2). Values come first.
IC50 (VEGFR2) [nM],Structure (SMILES),number of tubes formed in the fibrin gel (score) at 0.01 μM [1],number of tubes formed in the fibrin gel (score) at 0.1 μM [1],number of tubes formed in the fibrin gel (score) at 1.0 μM [1]
6.5,"COc1cc2nccc(Oc3ccc(NC(=O)NC4CC4)c(Cl)c3)c2cc1C(=O)NCCS(C)(=O)=O [Example 404, N6-(2-(Methylsulfonyl)ethyl)-4-(3-chloro-4-(((cyclopropylamino)carbonyl)amino)phenoxy)-7-methoxy-6-quinolinecarboxamide]",−,−,−
6.4,"CCNC(=O)n1ccc2cc(Oc3ccnc4cc(OC)c(C(N)=O)cc34)ccc21 [Example 316, 6-Carbamoyl-4-(1-ethylcarbamoyl-1H-indol-5-yloxy)-7-methoxyquinoline]",+/−,−,−
